Consider two molecules from patent publication US4839343A, “Preparation containing hexatriacontapeptides and methods of use” (Debiopharm, S.A., priority 1987, dated 1989).

For assay [1], the system named is patient seriously affected by bacteremic (endotoxic) shock. Description: Treatment of patient with bacteremic (endotoxic) shock by intravenous peptide infusion. The class given is in vivo, human. Here is the method:
A patient seriously affected by bacteremic (endotoxic) shock was admitted in an intensive care unit and treated with dopamine given intravenously at doses of 10 and 20 mcg/kg/min.
A solution of NPY was then given by intravenous infusion at increasing doses of 0.01 to 50 pmol/kg/min over a period of 10 hours.

Assay [2] has as its system Conscious normotensive rats. Put plainly: Pressor response to norepinephrine in conscious normotensive rats infused with endotoxin and/or NPY. The format is in vivo, rat. Here is the method: Conscious normotensive rats were divided into six groups. Rats of Group II and IV were infused intravenously with NPY (0.1 mcg/min for 75 min). A further two groups of rats (I and III) received the vehicle of the peptide ([…]) for the same period. Escherichia Coli endotoxin (lipopolysaccharide E. Coli 0.111: B4, Difco Laboratories, Detroit, MI), 10 mcg/10 mcl/min was infused starting 15 min after the beginning of the NPY-infusion (Group IV) or its vehicle (Group III). The remaining rats (Groups I and […]) were given the vehicle of endotoxin, 10 mcl/min i.v. In all these rats, a dose-response curve to intravenous injections of norepinephrine was obtained 5 min after ending the administration of NPY. The infusion of endotoxin or its vehicle was continued throughout this period. In two additional groups rats infused for 45 min with endotoxin or its vehicle, a 2 ml blood sample was obtained via the arterial catheter for determination of plasma NPY levels.
The endotoxin was dissolved in 0.9% NaCl to achieve a concentration of […]. NPY was diluted with 0.1M HCl to a concentration of 10 mg/l. Aliquots containing 15 mcg were stored frozen at -70° C. and thawed immediately before use. The different solutions were infused using a syringe pump (Model 455, Sage Instrument, White Plains, NY). Norepinephrine (Arterenol, Hoechst, Frankfurt-am-Main, FRG) was diluted in 0.9% NaCl to attain a concentration of 20 ng/20 mcl. Using a 250 mcl glass syringe (Hamilton), the dose of norepinephrine was increased by altering the volume injected.

Assay [3] concerns Normotensive male Wistar rats. Description: Endotoxin-induced blood pressure fall in adrenal-demedullated conscious rats, i.v. NPY infusion. The class given is in vivo, rat. Here is the method: Normotensive male Wistar rats were subjected to adrenal demedullation on the right side and either adrenolectomized or sham-operated on the left side. Ten days later a solution of NPY in non-alkaline saline was given as an intravenous infusion (70 ng/min) to these conscious semi-restrained animals. A group of control animals received only the saline diluent. During the last 75 minutes of the experiment, endotoxin (LPs E. Coli 0111: B4, 10 mcg/min i.v.) was administered both in NPY-treated and control animals.

`NCCc1ccc(O)c(O)c1` [dopamine, reference compound]: the “arterial pressure of the patient under dopamine alone” value in assay [1] (dopamine i.v. 10 and 20 mcg/kg/min, before NPY) is reported as “continued to fall”.
Turning to neuropeptide Y [NPY], in assay [1] (NPY i.v. infusion 0.01 to 50 pmol/kg/min over 10 hours, each time tachycardia was observed), the “effect on concomitant dopamine dose” value is “allowed a decrease in the dose of dopamine”. In addition, the “arterial pressure of the patient” value in assay [1] (NPY i.v. infusion, increasing doses 0.01 to 50 pmol/kg/min over 10 hours, with dopamine) is listed as “normalization of arterial pressure”. In assay [2] (NPY 0.1 mcg/min i.v. 75 min, norepinephrine 20, 40, 80, 160 ng, p<0.001, <0.01, <0.001, <0.05), the “pressor effects of norepinephrine after NPY infused alone (Group II) versus control (Group I)” value is given as “significantly enhanced”. Also, the “blood pressure response to norepinephrine in endotoxin plus NPY rats (Group IV) versus control rats (Group I)” value in assay [2] (NPY 0.1 mcg/min i.v. 75 min plus endotoxin, all norepinephrine doses tested) was “no longer any significant difference”. Further, the “blood pressure response to norepinephrine in endotoxin-treated rats (Group IV) versus endotoxin alone (Group III)” value in assay [2] (NPY 0.1 mcg/min i.v. 75 min plus endotoxin, norepinephrine 20, 40, 80, 160 ng i.v., p<0.05, <0.01, <0.01, <0.05) is listed as “significantly greater than in those animals receiving endotoxin alone”. Further, the “effect on blood pressure or heart rate before norepinephrine injections” value in assay [2] (NPY 0.1 mcg/min i.v. for 75 min, alone or in combination with endotoxin 10 mcg/min) was “no significant effect on blood pressure or heart rate”. Besides, in assay [2] (last norepinephrine dose given 50 min after stopping the NPY infusion), the “duration of NPY-induced facilitation of norepinephrine evoked changes in blood pressure” value was “long-lasting”. Moreover, the “reduction of intraarterial mean blood pressure during endotoxin infusion” value in assay [3] (NPY 70 ng/min i.v. infusion, endotoxin 10 mcg/min i.v. for last 75 min, 12 rats, baseline 116±1.6 mm Hg, controls dropped 40±6.4 mm Hg, 2 of 9 died) is on record as 8±2.1 mm Hg. Besides, the “effect of NPY infusion alone on blood pressure” value in assay [3] (another group of rats, NPY 70 ng/min i.v., no endotoxin) was “no significant effect on blood pressure”.
